US20230042881A1, “MODULATORS OF INTEGRATED STRESS RESPONSE PATHWAY” (Praxis Biotech LLC, priority 2021, published 2023)
pIC50: −log10 of the molar value.

How the values were obtained:
[1] = system: Chinese hamster ovary (CHO) cells; assay: Protein synthesis assay (puromycin incorporation, Western blot); assay type: cell-based; conditions: Cricetulus griseus; unstressed CHO cells (without Tg), 2 hours, 1 μM test compound; media alone = 100%; read-out: % Protein synthesis relative to untreated (1 μM test compound)
Experimental: Chinese hamster ovary (CHO) cells were maintained at 37° C. and 5% CO2 in Dulbecco's Modified Eagle's Media (DMEM) supplemented with 10% fetal bovine serum, 2 mM L-glutamine, 100 U/ml penicillin, and 100 μg/ml streptomycin. After reaching 80% of confluence, cells were detached and seeded on 6 well plates in complete media, allowed to recover overnight and treated for 2 hours with 1 μM of the test compound (to assess protein synthesis levels in unstressed condition), or for 2 hours with 300 nM Tg in the presence of 1 μM of the test compound (to assess the recovery of protein synthesis in a stressed condition). Cells with Tg alone were used as controls.
After the 2 hours treatments, media were replaced by adding 10 μg/ml puromycin (Sigma Aldrich #P8833) in complete media for 30 min. Media were removed and cells were lysed with SDS-PAGE lysis buffer. Lysates were transferred to 1.5 ml tubes and sonicated for 3 min and total protein amount were quantified using BCA Protein Assay Kit (Pierce). Equal amount of protein (30 μg) was loaded on SDS-PAGE gels.
A HRP-conjugated secondary antibody (Rockland) was employed to detect immune-reactive bands using enhanced chemiluminescence (ECL Western Blotting Substrate, Pierce). Quantification of protein bands was done by densitometry using ImageJ software.
The percentage levels were normalized to the media alone condition, which correspond to 100% protein synthesis. […]

ATF4 = ATF4 expression inhibition assay (ATF4 5′UTR luciferase reporter, thapsigargin-stressed); assay type: cell-based; conditions: Homo sapiens, HEK-293T; HEK293T cells carrying ATF4 luciferase reporter, 100 nM thapsigargin (Tg), 3 hours at 37° C.; read-out: ATF4 inhibition
Experimental: The ATF4 reporter was prepared by fusing the human full length 5′UTR of ATF4 (NCBI Accession No. BC022088.2) upstream of the firefly luciferase coding sequence lacking the initiator methionine. The fused sequence was cloned into pLenti-EF1a-C-Myc-DDK-IRES-Puro cloning vector (Origen #PS100085) using standard methods.
HEK293T cells carrying the ATF4 luciferase reporter were plated on 96-well plates (Nunc) at 10,000 cells per well. Cells were treated two days after seeding with 100 nM thapsigargin (Tg) (Sigma-Aldrich #T9033) in the presence of different concentrations of selected compounds ranging from 0.1 nM to […]. Cells without treatment or cells treated with Tg alone were used as controls. Assay plates containing cells were incubated for 3 hours at 37° C.
Luciferase reactions were performed using Luciferase Assay System (Promega #E1501) as specified by the manufacturer. Luminescence was read with an integration time of 1 s and a gain of 110 using a Cytation-5 multi-mode microplate reader (BioTek).

SMILES	activity at 1 µM [1] [%]	pIC50 (ATF4)
O=C(COc1ccc(Cl)c(F)c1)N[C@H]1CC[C@H](C(=O)Nc2nc3cc(Cl)ccc3s2)CC1 [Compound 14, trans-4-(2-(4-chloro-3-fluorophenoxy)acetamido)-N-(5-chlorobenzo[d]thiazol-2-yl)cyclohexane-1-carboxamide]	105	> 8.00
O=C(COc1ccc(Cl)c(F)c1)NC1CCN(C(=O)Nc2ccc3cc(Cl)ccc3n2)CC1 [Compound 15, 4-(2-(4-chloro-3-fluorophenoxy)acetamido)-N-(6-chloroquinolin-2-yl)piperidine-1-carboxamide]	177	7.00 to 8.00
O=C(COc1ccc(Cl)c(F)c1)NN1CCC(C(=O)Nc2ccc3cc(Cl)ccc3n2)CC1 [Compound 16, 1-(2-(4-chloro-3-fluorophenoxy)acetamido)-N-(6-chloroquinolin-2-yl)piperidine-4-carboxamide]	133	> 8.00
O=C(Nc1ccc2cc(Cl)ccc2n1)[C@H]1CC[C@H](C(=O)Nc2ccc3cc(Cl)ccc3n2)CC1 [Compound 17, trans-N^1,N^4-bis(6-chloroquinolin-2-yl)cyclohexane-1,4-dicarboxamide]	110	7.00 to 8.00
O=C(COc1ccc(Cl)cc1)NN1CCC(C(=O)Nc2ccc3cc(Cl)ccc3n2)CC1 [Compound 18, 1-(2-(4-chlorophenoxy)acetamido)-N-(6-chloroquinolin-2-yl)piperidine-4-carboxamide]	75.6	> 8.00
O=C(NN1CCC(C(=O)Nc2ccc3cc(Cl)ccc3n2)CC1)c1ccc2cc(Cl)ccc2n1 [Compound 19, 6-chloro-N-(4-((6-chloroquinolin-2-yl)carbamoyl)piperidin-1-yl)quinoline-2-carboxamide]	122	> 8.00
O=C(COc1ccc(Cl)c(F)c1)N[C@H]1CC[C@H](C(=O)NCc2ccc3cc(Cl)ccc3n2)CC1 [Compound 22, trans-4-(2-(4-chloro-3-fluorophenoxy)acetamido)-N-((6-chloroquinolin-2-yl)methyl)cyclohexanecarboxamide]	100	7.00 to 8.00
O=C(CO[C@H]1C[C@@H](OC(F)(F)F)C1)N[C@H]1CC[C@H](C(=O)Nc2ccc3cc(Cl)ccc3n2)CC1 [Compound 24, trans-N-(6-chloroquinolin-2-yl)-4-(2-(cis-3-(trifluoromethoxy)cyclobutoxy)acetamido)cyclohexanecarboxamide]	99.3	> 8.00
O=C(CO[C@H]1C[C@@H](OC(F)(F)F)C1)NN1CCC(C(=O)Nc2ccc3cc(Cl)ccc3n2)CC1 [Compound 25, N-(6-chloroquinolin-2-yl)-1-(2-((1s, 3s)-3-(trifluoromethoxy)cyclobutoxy)acetamido)piperidine-4-carboxamide]	96.1	> 8.00
O=C(Nc1ccc2cc(Cl)ccc2n1)[C@H]1CC[C@H](C(=O)N[C@H]2C[C@@H](OC(F)(F)F)C2)CC1 [Compound 31, trans-N1-(6-chloroquinolin-2-yl)-N4-(cis-3-(trifluoromethoxy)cyclobutyl)cyclohexane-1,4-dicarboxamide]	88.3	7.00 to 8.00
O=C(COc1ccc(C(F)(F)F)cc1)N[C@H]1CC[C@H](C(=O)Nc2ccc3cc(Cl)ccc3n2)CC1 [Compound 35, trans-N-(6-chloroquinolin-2-yl)-4-(2-(4-(trifluoromethyl)phenoxy)acetamido)cyclohexanecarboxamide]	82.9	> 8.00
O=C(COc1ccc(OC(F)(F)F)cc1)N[C@H]1CC[C@H](C(=O)Nc2ccc3cc(Cl)ccc3n2)CC1 [Compound 36, trans-N-(6-chloroquinolin-2-yl)-4-(2-(4-(trifluoromethoxy)phenoxy)acetamido)cyclohexanecarboxamide]	160	> 8.00
O=C(COc1ccc(Cl)c(F)c1)N[C@H]1CC[C@H](C(=O)NCc2cc3cc(Cl)ccc3o2)CC1 [Compound 39, trans-4-(2-(4-chloro-3-fluorophenoxy)acetamido)-N-((5-chlorobenzofuran-2-yl)methyl)cyclohexanecarboxamide]	170	7.00 to 8.00
O=C(COc1ccc(Cl)c(F)c1)NN1CCC(C(=O)NCc2cc3cc(Cl)ccc3o2)CC1 [Compound 40, 1-(2-(4-chloro-3-fluorophenoxy)acetamido)-N-((5-chlorobenzofuran-2-yl)methyl)piperidine-4-carboxamide]	121	> 8.00
O=C(N[C@H]1CC[C@H](C(=O)NCc2cc3cc(Cl)ccc3o2)CC1)c1ccc2cc(Cl)ccc2n1 [Compound 43, 6-chloro-N-(trans-4-(((5-chlorobenzofuran-2-yl)methyl)carbamoyl)cyclohexyl)quinoline-2-carboxamide]	85.2	> 8.00
O=C(NN1CCC(C(=O)NCc2cc3cc(Cl)ccc3o2)CC1)c1ccc2cc(Cl)ccc2n1 [Compound 44, 6-chloro-N-(4-(((5-chlorobenzofuran-2-yl)methyl)carbamoyl)piperidin-1-yl)quinoline-2-carboxamide]	96.8	> 8.00
O=C(N[C@H]1CC[C@H](C(=O)NCc2cc3cc(Cl)ccc3o2)CC1)c1cc2cc(Cl)ccc2o1 [Compound 47, 5-chloro-N-(trans-4-(((5-chlorobenzofuran-2-yl)methyl)carbamoyl)cyclohexyl)benzofuran-2-carboxamide]	103	> 8.00
O=C(NN1CCC(C(=O)NCc2cc3cc(Cl)ccc3o2)CC1)c1cc2cc(Cl)ccc2o1 [Compound 48, 1-(5-chlorobenzofuran-2-carboxamido)-N-((5-chlorobenzofuran-2-yl)methyl)piperidine-4-carboxamide]	109	> 8.00
O=C(N[C@H]1CC[C@H](C(=O)NCc2cc3cc(Cl)ccc3o2)CC1)C1CNc2cc(Cl)ccc2O1 (stereo partly drawn) [Compound 49, 6-chloro-N-(trans-4-(((5-chlorobenzofuran-2-yl)methyl)carbamoyl)cyclohexyl)-3,4-dihydro-2H-benzo[b][1,4]oxazine-2-carboxamide]	122	7.00 to 8.00
O=C(NCc1cc2cc(Cl)ccc2o1)C1CCN(NC(=O)C2CNc3cc(Cl)ccc3O2)CC1 (centres unmarked) [Compound 50, 6-chloro-N-(4-(((5-chlorobenzofuran-2-yl)methyl)carbamoyl)piperidin-1-yl)-3,4-dihydro-2H-benzo[b][1,4]oxazine-2-carboxamide]	85.1	7.00 to 8.00
O=C(COc1ccc(Cl)c(F)c1)N[C@H]1CC[C@H](C(=O)NCC2CNc3cc(Cl)ccc3O2)CC1 (stereo partly drawn) [Compound 67, trans-N-((6-chloro-3,4-dihydro-2H-benzo[b][1,4]oxazin-2-yl)methyl)-4-(2-(4-chloro-3-fluorophenoxy)acetamido)cyclohexanecarboxamide]	109	> 8.00
O=C(COc1ccc(Cl)c(F)c1)NN1CCC(C(=O)NCC2CNc3cc(Cl)ccc3O2)CC1 (centres unmarked) [Compound 68, N-((6-chloro-3,4-dihydro-2H-benzo[b][1,4]oxazin-2-yl)methyl)-1-(2-(4-chloro-3-fluorophenoxy)acetamido)piperidine-4-carboxamide]	98.3	> 8.00
